{"source": "patent US20040127413A1", "about": "“Enteric keto acid and amino acid salts and their use for preparing medicines” (priority 2001, published 2004)", "test_system": "Male Sprague-Dawley rats", "assay": "Colic distension model (visceral pain model in the rat), abdominal cramps counted", "note": "Marks after values point to notes of the source that are not given here.", "data": [{"smiles": "CCC(=O)C(=O)O.NC(N)=NCCC[C@H](N)C(=O)O", "note": "[Arginine alpha-ketobutyrate, arginine alpha-ketobutyrate]", "values": [{"measurement": "Number of abdominal cramps, Average", "setting": "10 mg/kg p.o. pH 1", "value": 15}, {"measurement": "Number of abdominal cramps, Average", "setting": "10 mg/kg p.o. pH 6", "value": "9*"}, {"measurement": "Activity in the colon distension model (in words)", "setting": "p.o. at pH 1", "value": "inactive"}, {"measurement": "Activity in the colon distension model (in words)", "setting": "p.o. at pH 6 (neutral)", "value": "active"}]}]}
